Test results: patent publication US20250186437A1, “CARBOLINE COMPOUNDS AND USE THEREOF” (PTC Therapeutics, Inc., priority 2021, published 2025)

Tested on: MOLM-13 cells
Assay: MOLM-13 Cell Proliferation Assay (indicator of DHODH inhibition)
Assay type: cell-based
Settings: Homo sapiens, 72 Hours of culture, CellTiter-Glo, no uridine
Protocol: The following assay was conducted to measure proliferation of MOLM-13 cells in the presence of each compound studied. This assay was included as an indicator of DHODH inhibition, as growth of MOLM-13 cells is known to depend on synthesis of pyrimidines using the de novo pathway, which can be blocked by inhibition of DHODH. • 1. MOLM-13 cells were cultured in RPMI 1640 medium+10% Fetal Bovine Serum (FBS). Only low passage cells (<20) were used for the compound tests • 2. On day 1, Log-phase growing Molm-13 Cells were counted and diluted to 10^5 cells/mL in RPMI 1640 medium+10% FBS • 3. 100 μL of diluted MOLM-13 cells in 96 well white plates were seeded, for a final density of 10^4 cells/well. • 4. 0.5 μL of pre-diluted 200× compounds or DMSO control was added to each well. The final DMSO concentration was 0.5%. • 5. After 72 Hours of culture at 37° C., 5% CO2, the plates were taken out and cooled to RT, then 50 μL CellTiter-Glo® (Promega) was added, and the composition was mixed at RT for 10 minutes. • 6. The plates were then read by ViewLux (Speed-fast, Gain-High, Bining-1X, 5 seconds).

Row | Compound | IC50
1 | Fc1ccc(C2c3[nH]c4ccc(Cl)cc4c3CCN2c2ncc(Cl)cn2)cc1 (centres unmarked) [Compound 1, 6-chloro-2-(5-chloropyrimidin-2-yl)-1-(4-fluorophenyl)-2,3,4,9-tetrahydro-1H-pyrido[3,4-b]indole] | 0.0318 µM
2 | Cc1cnc(N2CCc3c([nH]c4ccc(Cl)cc34)C2c2ccc(F)cc2)nc1 (centres unmarked) [Compound 2, 6-chloro-1-(4-fluorophenyl)-2-(5-methylpyrimidin-2-yl)-2,3,4,9-tetrahydro-1H-pyrido[3,4-b]indole] | 0.0606 µM
3 | Fc1ccc(C2c3[nH]c4ccc(Cl)cc4c3CCN2c2ncc(F)cn2)cc1 (centres unmarked) [Compound 3, 6-chloro-1-(4-fluorophenyl)-2-(5-fluoropyrimidin-2-yl)-2,3,4,9-tetrahydro-1H-pyrido[3,4-b]indole] | 0.0296 µM
4 | Fc1ccc(C2c3[nH]c4cc(F)c(Cl)cc4c3CCN2c2ncc(Cl)cn2)cc1 (centres unmarked) [Compound 4, 6-chloro-2-(5-chloropyrimidin-2-yl)-7-fluoro-1-(4-fluorophenyl)-2,3,4,9-tetrahydro-1H-pyrido[3,4-b]indole] | 0.0597 µM
5 | Fc1ccc(C2c3[nH]c4cc(F)c(Cl)cc4c3CCN2c2ncc(F)cn2)cc1 (centres unmarked) [Compound 5, 6-chloro-7-fluoro-1-(4-fluorophenyl)-2-(5-fluoropyrimidin-2-yl)-2,3,4,9-tetrahydro-1H-pyrido[3,4-b]indole] | 0.0679 µM
6 | Cc1ccc(C2c3[nH]c4cc(F)c(Cl)cc4c3CCN2c2ncc(F)cn2)cc1 (centres unmarked) [Compound 6, 6-chloro-7-fluoro-2-(5-fluoropyrimidin-2-yl)-1-(4-methylphenyl)-2,3,4,9-tetrahydro-1H-pyrido[3,4-b]indole] | 0.0376 µM
7 | Cc1ccc(C2c3[nH]c4ccc(Cl)cc4c3CCN2c2nc(Cl)cc(Cl)n2)cc1 (centres unmarked) [Compound 7, 6-chloro-2-(4,6-dichloropyrimidin-2-yl)-1-(4-methylphenyl)-2,3,4,9-tetrahydro-1H-pyrido[3,4-b]indole] | 0.0006 µM
8 | COc1ccc(C2c3[nH]c4cc(F)c(Cl)cc4c3CCN2c2ncc(F)cn2)cn1 (centres unmarked) [Compound 8, 6-chloro-7-fluoro-2-(5-fluoropyrimidin-2-yl)-1-(6-methoxypyridin-3-yl)-2,3,4,9-tetrahydro-1H-pyrido[3,4-b]indole] | 0.0348 µM
9 | Cc1ccnc(N2CCc3c([nH]c4cc(F)c(Cl)cc34)C2c2ccc(F)cc2)n1 (centres unmarked) [Compound 9, 6-chloro-7-fluoro-1-(4-fluorophenyl)-2-(4-methylpyrimidin-2-yl)-2,3,4,9-tetrahydro-1H-pyrido[3,4-b]indole] | 0.0359 µM
10 | Cc1ccc(C2c3[nH]c4ccc(Cl)cc4c3CCN2c2nccc(Cl)n2)cc1 (centres unmarked) [Compound 10, 6-chloro-2-(4-chloropyrimidin-2-yl)-1-(4-methylphenyl)-2,3,4,9-tetrahydro-1H-pyrido[3,4-b]indole] | 0.0041 µM
11 | Fc1cnc(N2CCc3c([nH]c4cc(F)c(Cl)cc34)C2c2ccc(Cl)cc2)nc1 (centres unmarked) [Compound 11, 6-chloro-1-(4-chlorophenyl)-7-fluoro-2-(5-fluoropyrimidin-2-yl)-2,3,4,9-tetrahydro-1H-pyrido[3,4-b]indole] | 0.0354 µM
12 | Fc1cnc(N2CCc3c([nH]c4cc(F)c(Cl)cc34)C2c2ccc(F)cc2F)nc1 (centres unmarked) [Compound 12, 6-chloro-1-(2,4-difluorophenyl)-7-fluoro-2-(5-fluoropyrimidin-2-yl)-2,3,4,9-tetrahydro-1H-pyrido[3,4-b]indole] | 0.0358 µM
13 | Fc1ccc(C2c3[nH]c4ccc(Cl)cc4c3CCN2c2nccc(Cl)n2)cc1 (centres unmarked) [Compound 13, 6-chloro-2-(4-chloropyrimidin-2-yl)-1-(4-fluorophenyl)-2,3,4,9-tetrahydro-1H-pyrido[3,4-b]indole] | 0.0124 µM
14 | CN(C)c1ncc(C2c3[nH]c4cc(F)c(Cl)cc4c3CCN2c2ncc(F)cn2)cn1 (centres unmarked) [Compound 14, 5-[6-chloro-7-fluoro-2-(5-fluoropyrimidin-2-yl)-2,3,4,9-tetrahydro-1H-pyrido[3,4-b]indol-1-yl]-N,N-dimethylpyrimidin-2-amine] | 0.0302 µM
15 | Fc1ccc(C2c3[nH]c4cc(F)c(Cl)cc4c3CCN2c2nccc(Cl)n2)cc1 (centres unmarked) [Compound 15, 6-chloro-2-(4-chloropyrimidin-2-yl)-7-fluoro-1-(4-fluorophenyl)-2,3,4,9-tetrahydro-1H-pyrido[3,4-b]indole] | 0.0326 µM
16 | Cc1ccc(C2c3[nH]c4cc(F)c(Cl)cc4c3CCN2c2nc(Cl)cc(Cl)n2)cc1 (centres unmarked) [Compound 16, 6-chloro-2-(4,6-dichloropyrimidin-2-yl)-7-fluoro-1-(4-methylphenyl)-2,3,4,9-tetrahydro-1H-pyrido[3,4-b]indole] | 0.0018 µM

Row | Compound | IC50
17 | N#Cc1ccc(C2c3[nH]c4cc(F)c(Cl)cc4c3CCN2c2nccc(Cl)n2)cc1 (centres unmarked) [Compound 18, 4-[6-chloro-2-(4-chloropyrimidin-2-yl)-7-fluoro-2,3,4,9-tetrahydro-1H-pyrido[3,4-b]indol-1-yl]benzonitrile] | 0.0135 µM
18 | Cc1cc(C)nc(N2CCc3c([nH]c4cc(F)c(Cl)cc34)C2c2ccc(F)cc2)n1 (centres unmarked) [Compound 19, 6-chloro-2-(4,6-dimethylpyrimidin-2-yl)-7-fluoro-1-(4-fluorophenyl)-2,3,4,9-tetrahydro-1H-pyrido[3,4-b]indole] | 0.0263 µM
19 | Cc1ccc(C2c3[nH]c4ccc(Cl)c(F)c4c3CCN2c2ncc(F)cn2)cc1 (centres unmarked) [Compound 20, 6-chloro-5-fluoro-2-(5-fluoropyrimidin-2-yl)-1-(4-methylphenyl)-2,3,4,9-tetrahydro-1H-pyrido[3,4-b]indole] | 0.0129 µM
20 | Cc1ccc(C2c3[nH]c4ccc(Cl)c(F)c4c3CCN2c2ncc(Cl)cn2)cc1 (centres unmarked) [Compound 21, 6-chloro-2-(5-chloropyrimidin-2-yl)-5-fluoro-1-(4-methylphenyl)-2,3,4,9-tetrahydro-1H-pyrido[3,4-b]indole] | 0.0098 µM
21 | CCc1ccnc(N2CCc3c([nH]c4cc(F)c(Cl)cc34)C2c2ccc(F)cc2)n1 (centres unmarked) [Compound 22, 6-chloro-2-(4-ethylpyrimidin-2-yl)-7-fluoro-1-(4-fluorophenyl)-2,3,4,9-tetrahydro-1H-pyrido[3,4-b]indole] | 0.0578 µM
22 | CC(C)c1ccnc(N2CCc3c([nH]c4cc(F)c(Cl)cc34)C2c2ccc(F)cc2)n1 (centres unmarked) [Compound 23, 6-chloro-7-fluoro-1-(4-fluorophenyl)-2-[4-(propan-2-yl)pyrimidin-2-yl]-2,3,4,9-tetrahydro-1H-pyrido[3,4-b]indole] | 0.0454 µM
23 | Fc1ccc(C2c3[nH]c4cc(F)c(Cl)cc4c3CCN2c2nccc(C(F)(F)F)n2)cc1 (centres unmarked) [Compound 24, 6-chloro-7-fluoro-1-(4-fluorophenyl)-2-[4-(trifluoromethyl)pyrimidin-2-yl]-2,3,4,9-tetrahydro-1H-pyrido[3,4-b]indole] | 0.0176 µM
24 | N#Cc1ccnc(N2CCc3c([nH]c4cc(F)c(Cl)cc34)C2c2ccc(F)cc2)n1 (centres unmarked) [Compound 25, 2-[6-chloro-7-fluoro-1-(4-fluorophenyl)-1,3,4,9-tetrahydro-2H-pyrido[3,4-b]indol-2-yl]pyrimidine-4-carbonitrile] | 0.0514 µM
25 | Fc1cnc(N2CCc3c([nH]c4ccc(Cl)c(F)c34)C2c2ccc(Cl)cc2)nc1 (centres unmarked) [Compound 26, 6-chloro-1-(4-chlorophenyl)-5-fluoro-2-(5-fluoropyrimidin-2-yl)-2,3,4,9-tetrahydro-1H-pyrido[3,4-b]indole] | 0.0189 µM
26 | Fc1c(Cl)ccc2[nH]c3c(c12)CCN(c1ncc(Cl)cn1)C3c1ccc(Cl)cc1 (centres unmarked) [Compound 27, 6-chloro-1-(4-chlorophenyl)-2-(5-chloropyrimidin-2-yl)-5-fluoro-2,3,4,9-tetrahydro-1H-pyrido[3,4-b]indole] | 0.0176 µM
27 | Cc1ccc(C2c3[nH]c4ccc(Cl)c(F)c4c3CCN2c2nccc(Cl)n2)cc1 (centres unmarked) [Compound 28, 6-chloro-2-(4-chloropyrimidin-2-yl)-5-fluoro-1-(4-methylphenyl)-2,3,4,9-tetrahydro-1H-pyrido[3,4-b]indole] | 0.0044 µM
28 | Fc1cc2[nH]c3c(c2cc1Cl)CCN(c1ncc(Cl)cn1)C3c1ccc(Cl)cc1 (centres unmarked) [Compound 29, 6-chloro-1-(4-chlorophenyl)-2-(5-chloropyrimidin-2-yl)-7-fluoro-2,3,4,9-tetrahydro-1H-pyrido[3,4-b]indole] | 0.0391 µM
29 | Fc1cnc(N2CCc3c([nH]c4cc(F)c(Cl)cc34)C2c2ccc(C3CC3)cc2)nc1 (centres unmarked) [Compound 31, 6-chloro-1-(4-cyclopropylphenyl)-7-fluoro-2-(5-fluoropyrimidin-2-yl)-2,3,4,9-tetrahydro-1H-pyrido[3,4-b]indole] | 0.0241 µM
30 | N#Cc1ccc(C2c3[nH]c4cc(F)c(Cl)cc4c3CCN2c2ncc(F)cn2)cc1 (centres unmarked) [Compound 32, 4-[6-chloro-7-fluoro-2-(5-fluoropyrimidin-2-yl)-2,3,4,9-tetrahydro-1H-pyrido[3,4-b]indol-1-yl]benzonitrile] | 0.0492 µM
31 | N#Cc1ccc(C2c3[nH]c4c(F)cc(Cl)cc4c3CCN2c2ncc(F)cn2)cc1 (centres unmarked) [Compound 33, 4-[6-chloro-8-fluoro-2-(5-fluoropyrimidin-2-yl)-2,3,4,9-tetrahydro-1H-pyrido[3,4-b]indol-1-yl]benzonitrile] | 0.121 µM
32 | CN(C)c1ccc(C2c3[nH]c4cc(F)c(Cl)cc4c3CCN2c2ncc(F)cn2)cn1 (centres unmarked) [Compound 34, 5-[6-chloro-7-fluoro-2-(5-fluoropyrimidin-2-yl)-2,3,4,9-tetrahydro-1H-pyrido[3,4-b]indol-1-yl]-N,N-dimethylpyridin-2-amine] | 0.0323 µM
